Assay in all cases: Z'-LYTE kinase panel
Common to all, as to type: biochemical

The target in one test is T1, PRKCN (PKD3) (Homo sapiens, UniProt O94806).
T1 construct: purchased ThermoFisher (SelectScreen, Z'-LYTE)
T1 sequence (O94806 1-890): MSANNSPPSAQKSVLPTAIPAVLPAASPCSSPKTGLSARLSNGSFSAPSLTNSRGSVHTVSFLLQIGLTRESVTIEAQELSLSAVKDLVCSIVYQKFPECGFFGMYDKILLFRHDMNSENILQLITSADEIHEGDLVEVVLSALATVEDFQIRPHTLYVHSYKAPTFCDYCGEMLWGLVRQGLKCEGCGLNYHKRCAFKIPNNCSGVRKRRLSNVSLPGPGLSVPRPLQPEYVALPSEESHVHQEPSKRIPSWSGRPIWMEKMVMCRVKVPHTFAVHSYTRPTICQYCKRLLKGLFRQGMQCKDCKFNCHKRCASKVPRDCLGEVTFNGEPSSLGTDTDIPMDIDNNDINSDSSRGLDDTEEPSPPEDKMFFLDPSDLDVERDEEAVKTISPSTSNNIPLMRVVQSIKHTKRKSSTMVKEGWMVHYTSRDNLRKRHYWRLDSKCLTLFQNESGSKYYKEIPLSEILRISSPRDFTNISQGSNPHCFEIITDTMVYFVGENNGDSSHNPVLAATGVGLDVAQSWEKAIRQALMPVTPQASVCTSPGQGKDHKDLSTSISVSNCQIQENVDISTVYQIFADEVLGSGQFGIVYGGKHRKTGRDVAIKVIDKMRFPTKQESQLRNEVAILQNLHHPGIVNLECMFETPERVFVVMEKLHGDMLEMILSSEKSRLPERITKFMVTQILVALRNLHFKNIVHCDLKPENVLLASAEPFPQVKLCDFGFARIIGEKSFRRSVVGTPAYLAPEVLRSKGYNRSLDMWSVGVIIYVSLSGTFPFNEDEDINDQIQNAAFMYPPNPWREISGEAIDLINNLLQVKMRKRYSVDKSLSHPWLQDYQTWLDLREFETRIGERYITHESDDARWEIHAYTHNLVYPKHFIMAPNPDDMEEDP
In short, it runs like this: (§1)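 The 225-kinase standard panel was run using the Z′-LYTE protocol, and inhibition was expressed as a percentage relative to uninhibited activity at 10 µM compound.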

The target in the next test is T2, AURKA (Aurora A) (Homo sapiens, UniProt O14965).
T2 construct: purchased ThermoFisher (SelectScreen, Z'-LYTE)
T2 sequence (O14965 1-403): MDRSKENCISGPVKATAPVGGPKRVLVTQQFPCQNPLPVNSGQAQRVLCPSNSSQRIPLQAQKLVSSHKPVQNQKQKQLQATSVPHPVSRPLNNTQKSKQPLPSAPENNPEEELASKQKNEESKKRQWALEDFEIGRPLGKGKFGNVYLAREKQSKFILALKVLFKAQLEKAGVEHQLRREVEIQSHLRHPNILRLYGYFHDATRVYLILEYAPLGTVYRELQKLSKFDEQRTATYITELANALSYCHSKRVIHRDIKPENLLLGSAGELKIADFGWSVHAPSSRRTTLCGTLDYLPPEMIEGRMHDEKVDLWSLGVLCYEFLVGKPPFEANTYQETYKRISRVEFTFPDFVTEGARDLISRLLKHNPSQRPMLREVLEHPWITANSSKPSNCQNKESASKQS
In outline: as §1

For the next test, the target named is T3, FRK (PTK5) (Homo sapiens, UniProt P42685).
T3 construct: purchased ThermoFisher (SelectScreen, Z'-LYTE)
T3 sequence (P42685 whole entry): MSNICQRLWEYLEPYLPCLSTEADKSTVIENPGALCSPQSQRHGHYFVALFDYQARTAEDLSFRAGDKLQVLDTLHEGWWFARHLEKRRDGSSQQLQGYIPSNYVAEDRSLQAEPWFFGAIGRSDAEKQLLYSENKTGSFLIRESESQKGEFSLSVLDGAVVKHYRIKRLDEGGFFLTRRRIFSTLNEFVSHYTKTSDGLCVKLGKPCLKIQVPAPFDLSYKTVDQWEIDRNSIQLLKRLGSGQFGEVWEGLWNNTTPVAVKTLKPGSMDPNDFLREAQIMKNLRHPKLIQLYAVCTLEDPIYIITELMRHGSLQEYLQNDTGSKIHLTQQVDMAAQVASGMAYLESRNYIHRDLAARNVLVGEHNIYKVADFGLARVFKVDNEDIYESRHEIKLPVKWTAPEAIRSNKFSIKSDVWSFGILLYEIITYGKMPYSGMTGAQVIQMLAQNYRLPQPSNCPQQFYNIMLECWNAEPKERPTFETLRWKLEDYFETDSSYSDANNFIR
In short, it runs like this:
as §1

For the next test, the target named is T4, MAP2K1 (MEK1) (Homo sapiens, UniProt Q02750).
T4 construct: purchased ThermoFisher (SelectScreen, Z'-LYTE)
Particulars: 10 µM compound; ATP 100. In short, it runs like this:
as §1

For a further test, the target named is T5, AKT3 (PKB gamma) (Homo sapiens, UniProt Q9Y243).
T5 construct: purchased ThermoFisher (SelectScreen, Z'-LYTE)
T5 sequence (Q9Y243 whole entry): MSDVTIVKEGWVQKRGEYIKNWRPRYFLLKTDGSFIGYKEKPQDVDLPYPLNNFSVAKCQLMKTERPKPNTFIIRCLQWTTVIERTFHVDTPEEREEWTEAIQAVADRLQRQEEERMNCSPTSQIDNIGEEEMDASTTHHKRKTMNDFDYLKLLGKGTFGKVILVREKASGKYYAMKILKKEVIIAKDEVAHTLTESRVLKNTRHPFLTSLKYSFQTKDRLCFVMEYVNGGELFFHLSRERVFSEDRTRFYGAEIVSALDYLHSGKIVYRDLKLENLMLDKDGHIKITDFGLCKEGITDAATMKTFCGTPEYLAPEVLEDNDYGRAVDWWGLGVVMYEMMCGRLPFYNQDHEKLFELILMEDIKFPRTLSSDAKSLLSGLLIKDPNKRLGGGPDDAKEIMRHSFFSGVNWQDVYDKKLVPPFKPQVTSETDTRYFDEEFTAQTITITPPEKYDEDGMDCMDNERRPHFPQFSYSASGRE
In outline: as §1

The target of a further test is T6, DCAMKL2 (DCK2) (Homo sapiens, UniProt Q8N568).
T6 construct: purchased ThermoFisher (SelectScreen, Z'-LYTE)
T6 sequence (Q8N568 1-766): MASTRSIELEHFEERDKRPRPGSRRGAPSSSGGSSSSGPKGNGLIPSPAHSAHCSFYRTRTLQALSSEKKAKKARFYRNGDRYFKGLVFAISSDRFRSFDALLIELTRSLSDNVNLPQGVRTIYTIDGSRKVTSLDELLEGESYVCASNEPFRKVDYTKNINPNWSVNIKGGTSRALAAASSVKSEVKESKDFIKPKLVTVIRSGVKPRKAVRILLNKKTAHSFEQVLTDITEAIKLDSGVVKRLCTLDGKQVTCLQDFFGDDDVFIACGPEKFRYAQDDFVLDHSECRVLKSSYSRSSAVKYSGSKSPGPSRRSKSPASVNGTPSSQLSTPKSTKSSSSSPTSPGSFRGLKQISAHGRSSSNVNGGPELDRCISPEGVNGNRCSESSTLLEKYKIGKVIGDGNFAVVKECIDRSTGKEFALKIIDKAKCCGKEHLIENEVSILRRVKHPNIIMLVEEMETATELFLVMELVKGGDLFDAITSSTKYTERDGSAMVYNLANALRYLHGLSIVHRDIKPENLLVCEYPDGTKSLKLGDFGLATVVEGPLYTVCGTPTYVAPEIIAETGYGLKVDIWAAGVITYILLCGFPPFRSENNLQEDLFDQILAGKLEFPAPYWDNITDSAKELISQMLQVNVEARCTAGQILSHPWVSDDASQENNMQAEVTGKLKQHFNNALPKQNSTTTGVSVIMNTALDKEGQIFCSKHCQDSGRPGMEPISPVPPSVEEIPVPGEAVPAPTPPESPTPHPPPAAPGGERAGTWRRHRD
In outline:
as §1

Usually inhibition stands for the change of the read-out against control, counted positive when it falls.

As to `Cc1ncc(-c2nc(Nc3ccc(C(=O)NCCN4CCCCC4)cc3)ncc2F)n1C(C)C` [Compound 3], the inhibition at 10 µM was 87% against PRKCN (PKD3); 82% at AURKA (Aurora A); 68% on FRK (PTK5); 97% against MAP2K1 (MEK1); 43% at AKT3 (PKB gamma); 62% at DCAMKL2 (DCK2).

`Cc1cc(Nc2nc(N)nn2C(=O)NC(C)C)ccc1Cl` [Compound 5]: the inhibition at 10 µM was 11% at PRKCN (PKD3); 78% at AURKA (Aurora A); 21% against FRK (PTK5); 8.53% against MAP2K1 (MEK1); 2% against AKT3 (PKB gamma); -1.9% against DCAMKL2 (DCK2).

For the compound “XMD8-92 [Compound 2, reference compound]”, on PRKCN (PKD3) (10 µM compound, ATP Km app), the “PRKCN (PKD3) % Inhibition” value worked out at 18%. Also, the “AURKA (Aurora A) % Inhibition” value at AURKA (Aurora A) (10 µM compound, ATP Km app) was 85%. The “FRK (PTK5) % Inhibition” value at FRK (PTK5) (10 µM compound, ATP Km app) was 20%. Besides, on MAP2K1 (MEK1), the “MAP2K1 (MEK1) % Inhibition” value is on record as 17%. The “AKT3 (PKB gamma) % Inhibition” value on AKT3 (PKB gamma) (10 µM compound, ATP Km app) was 72%. The “DCAMKL2 (DCK2) % Inhibition” value at DCAMKL2 (DCK2) (10 µM compound, ATP Km app) is on record as 61%.

The values are drawn from PMC4854315, “Discovery of a novel allosteric inhibitor-binding site in ERK5: comparison with the canonical kinase hinge ATP-binding site” (Acta Crystallographica. Section D, Structural Biology, 2016).
